{"source": "patent US8952024B2", "about": "“Herbicidal pyrimidone derivatives” (E I du Pont de Nemours and Company, priority 2009, dated 2015)", "experiment_in_all_cases": "Test B pre-/postemergence plant response", "format_in_all_cases": "in vivo", "key": {"[1]": {"system": "lambsquarters (Chenopodium album)", "settings": "Chenopodium album, post-emergence, Postemergence, scale 0 to 100 (0 no effect, 100 complete control), read-out: Plant response rating, Lambsquarters", "procedure,_shortened": "(§1)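 Visually scored on a 0 to 100 scale after 13 to 15 days in greenhouse versus controls. Treatments were preemergence on seeded loam/sand soil and postemergence on 1- to 4-leaf plants.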"}, "[2]": {"system": "large crabgrass (Digitaria sanguinalis)", "procedure,_shortened": "as §1"}, "[3]": {"system": "blackgrass (Alopecurus myosuroides)", "procedure,_shortened": "as §1"}, "corn (Zea mays)": {"system": "corn (Zea mays)", "procedure,_shortened": "as §1"}, "kochia (Kochia scoparia)": {"system": "kochia (Kochia scoparia)", "procedure,_shortened": "as §1"}, "[4]": {"system": "goosegrass (Eleusine indica)", "procedure,_shortened": "as §1"}, "[5]": {"system": "yellow nutsedge (Cyperus esculentus)", "procedure,_shortened": "as §1"}, "[6]": {"system": "woolly cupgrass (Eriochloa villosa)", "procedure,_shortened": "as §1"}, "soybean (Glycine max)": {"system": "soybean (Glycine max)", "procedure,_shortened": "as §1"}, "[7]": {"settings": "62 g ai/ha, postemergence, 0 is no effect, 100 is complete control, 13 to 15 days"}}}
{"smiles": "O=C1CCCC(O)=C1C(=O)c1cnc(-c2ccccc2)n(C2CCCCC2)c1=O", "note": "[Compound 128, 3-cyclohexyl-5-[(2-hydroxy-6-oxo-1-cyclohexen-1-yl)carbonyl]-2-phenyl-4(3H)-pyrimidinone]", "values": [{"measurement": "pest or weed control at 125 g/ha", "setting": "[1]; 125 g ai/ha", "result": 100, "unit": "%"}, {"measurement": "pest or weed control at 250 g/ha", "setting": "[1]; 250 g ai/ha, 13 to 15 days", "result": 100, "unit": "%"}, {"measurement": "Crabgrass, Large plant response rating (0 to 100 scale)", "setting": "[2]; [7]", "result": 85}, {"measurement": "pest or weed control at 31 g/ha", "setting": "[2]; Digitaria sanguinalis, post-emergence, Postemergence, 31 g ai/ha, 0 to 100 scale (0 no effect, 100 complete control), read-out: Plant response rating, Crabgrass, Large", "result": 85, "unit": "%"}, {"measurement": "pest or weed control at 125 g/ha", "setting": "[2]; Digitaria sanguinalis, post-emergence, Postemergence, 125 g ai/ha, scale 0 to 100 (0 no effect, 100 complete control), read-out: Plant response rating, Crabgrass, Large", "result": 95, "unit": "%"}, {"measurement": "pest or weed control at 250 g/ha", "setting": "[2]; Digitaria sanguinalis, post-emergence, Postemergence, 250 g ai/ha, scale 0 to 100 (0 no effect, 100 complete control), 13 to 15 days, read-out: Plant response rating, Crabgrass, Large", "result": 100, "unit": "%"}, {"measurement": "Blackgrass plant response rating (0 to 100 scale)", "setting": "[3]; [7]", "result": 5}, {"measurement": "pest or weed control at 31 g/ha", "setting": "[3]; Alopecurus myosuroides, post-emergence, 360 h, Postemergence, 31 g ai/ha, 0 to 100 scale (0 no effect, 100 complete control), read-out: Plant response rating, Blackgrass", "result": 5, "unit": "%"}, {"measurement": "pest or weed control at 125 g/ha", "setting": "[3]; Alopecurus myosuroides, post-emergence, 360 h, Postemergence, 125 g ai/ha, scale 0 to 100 (0 no effect, 100 complete control), read-out: Plant response rating, Blackgrass", "result": 10, "unit": "%"}, {"measurement": "pest or weed control at 250 g/ha", "setting": "[3]; Alopecurus myosuroides, post-emergence, 360 h, Postemergence, 250 g ai/ha, scale 0 to 100 (0 no effect, 100 complete control), 13 to 15 days, read-out: Plant response rating, Blackgrass", "result": 15, "unit": "%"}, {"measurement": "Corn plant response rating (0 to 100 scale)", "setting": "corn (Zea mays); [7]", "result": 50}, {"measurement": "Corn plant response rating (crop injury, 0 = no effect, 100 = complete kill) at 31 g/ha", "setting": "corn (Zea mays); Zea mays, post-emergence, Postemergence, 31 g ai/ha, 0 to 100 scale (0 no effect, 100 complete control)", "result": 40, "unit": "%"}, {"measurement": "Corn plant response rating (crop injury, 0 = no effect, 100 = complete kill) at 125 g/ha", "setting": "corn (Zea mays); Zea mays, post-emergence, Postemergence, 125 g ai/ha, scale 0 to 100 (0 no effect, 100 complete control)", "result": 60, "unit": "%"}, {"measurement": "Corn plant response rating (crop injury, 0 = no effect, 100 = complete kill) at 250 g/ha", "setting": "corn (Zea mays); Zea mays, post-emergence, Postemergence, 250 g ai/ha, scale 0 to 100 (0 no effect, 100 complete control), 13 to 15 days", "result": 60, "unit": "%"}, {"measurement": "Kochia plant response rating (0 to 100 scale)", "setting": "kochia (Kochia scoparia); [7]", "result": 85}, {"measurement": "pest or weed control at 31 g/ha", "setting": "kochia (Kochia scoparia); Bassia scoparia, post-emergence, Postemergence, 31 g ai/ha, 0 to 100 scale (0 no effect, 100 complete control), read-out: Plant response rating, Kochia", "result": 60, "unit": "%"}, {"measurement": "pest or weed control at 125 g/ha", "setting": "kochia (Kochia scoparia); Bassia scoparia, post-emergence, Postemergence, 125 g ai/ha, scale 0 to 100 (0 no effect, 100 complete control), read-out: Plant response rating, Kochia", "result": 95, "unit": "%"}, {"measurement": "pest or weed control at 250 g/ha", "setting": "kochia (Kochia scoparia); Bassia scoparia, post-emergence, Postemergence, 250 g ai/ha, scale 0 to 100 (0 no effect, 100 complete control), 13 to 15 days, read-out: Plant response rating, Kochia", "result": 98, "unit": "%"}, {"measurement": "Goosegrass plant response rating (0 to 100 scale)", "setting": "[4]; [7]", "result": 95}, {"measurement": "pest or weed control at 31 g/ha", "setting": "[4]; Eleusine indica, post-emergence, Postemergence, 31 g ai/ha, 0 to 100 scale (0 no effect, 100 complete control), read-out: Plant response rating, Goosegrass", "result": 90, "unit": "%"}, {"measurement": "pest or weed control at 125 g/ha", "setting": "[4]; Eleusine indica, post-emergence, Postemergence, 125 g ai/ha, scale 0 to 100 (0 no effect, 100 complete control), read-out: Plant response rating, Goosegrass", "result": 98, "unit": "%"}, {"measurement": "pest or weed control at 250 g/ha", "setting": "[4]; Eleusine indica, post-emergence, Postemergence, 250 g ai/ha, scale 0 to 100 (0 no effect, 100 complete control), 13 to 15 days, read-out: Plant response rating, Goosegrass", "result": 98, "unit": "%"}, {"measurement": "Nutsedge, Yellow plant response rating (0 to 100 scale)", "setting": "[5]; [7]", "result": 35}, {"measurement": "pest or weed control at 31 g/ha", "setting": "[5]; Cyperus, post-emergence, Postemergence, 31 g ai/ha, 0 to 100 scale (0 no effect, 100 complete control), read-out: Plant response rating, Nutsedge, Yellow", "result": 20, "unit": "%"}, {"measurement": "pest or weed control at 125 g/ha", "setting": "[5]; Cyperus, post-emergence, Postemergence, 125 g ai/ha, scale 0 to 100 (0 no effect, 100 complete control), read-out: Plant response rating, Nutsedge, Yellow", "result": 60, "unit": "%"}, {"measurement": "pest or weed control at 250 g/ha", "setting": "[5]; Cyperus, post-emergence, Postemergence, 250 g ai/ha, scale 0 to 100 (0 no effect, 100 complete control), 13 to 15 days, read-out: Plant response rating, Nutsedge, Yellow", "result": 60, "unit": "%"}, {"measurement": "Cupgrass, Woolly plant response rating (0 to 100 scale)", "setting": "[6]; [7]", "result": 90}, {"measurement": "pest or weed control at 31 g/ha", "setting": "[6]; Eriochloa villosa, post-emergence, Postemergence, 31 g ai/ha, 0 to 100 scale (0 no effect, 100 complete control), read-out: Plant response rating, Cupgrass, Woolly", "result": 85, "unit": "%"}, {"measurement": "pest or weed control at 125 g/ha", "setting": "[6]; Eriochloa villosa, post-emergence, Postemergence, 125 g ai/ha, scale 0 to 100 (0 no effect, 100 complete control), read-out: Plant response rating, Cupgrass, Woolly", "result": 90, "unit": "%"}, {"measurement": "pest or weed control at 250 g/ha", "setting": "[6]; Eriochloa villosa, post-emergence, Postemergence, 250 g ai/ha, scale 0 to 100 (0 no effect, 100 complete control), 13 to 15 days, read-out: Plant response rating, Cupgrass, Woolly", "result": 95, "unit": "%"}, {"measurement": "Soybean plant response rating (0 to 100 scale)", "setting": "soybean (Glycine max); [7]", "result": 98}, {"measurement": "plant injury at 31 g/ha", "setting": "soybean (Glycine max); Glycine max, post-emergence, Postemergence, 31 g ai/ha, 0 to 100 scale (0 no effect, 100 complete control), read-out: Plant response rating, Soybean", "result": 98, "unit": "%"}, {"measurement": "plant injury at 125 g/ha", "setting": "soybean (Glycine max); Glycine max, post-emergence, Postemergence, 125 g ai/ha, scale 0 to 100 (0 no effect, 100 complete control), read-out: Plant response rating, Soybean", "result": 98, "unit": "%"}, {"measurement": "plant injury at 250 g/ha", "setting": "soybean (Glycine max); Glycine max, post-emergence, Postemergence, 250 g ai/ha, scale 0 to 100 (0 no effect, 100 complete control), 13 to 15 days, read-out: Plant response rating, Soybean", "result": 98, "unit": "%"}]}
